Counter-ions that a name gives are not always drawn.
Tests used:
[1] = Stability of conjugates in Simulated Gastric Fluid (SGF); format: in vitro ADME; settings: SGF pH 1.6 with pepsin, 37° C., 1 μM compound
In short: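 Compound at 1 μM (from 1 mM DMSO stock) in pH 1.6 NaCl medium with FaSSIF powder and 0.1 mg/mL pepsin, mixed at 37° C. Aliquots quenched with equal volume acetonitrile at T0 and regular intervals; LC/MS gives degradation rate.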

[2] = Stability of conjugates in Simulated Intestinal Fluid (SIF); format: in vitro ADME; settings: SIF pH 6.7 with pancreatin, 37° C., 1 μM compound
In short: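 Compounds at 1 μM in fresh simulated intestinal fluid: FaSSIF powder in pH 6.7 phosphate buffer with pancreatin. Agitated at 37 °C; aliquots taken at T0 and regular intervals, quenched with 1 volume acetonitrile. Degradation rates determined by LC/MS.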

[3] = In vitro Colonic Material Stability Assay; format: in vitro ADME; settings: colonic material slurry in YCFAC media, anaerobic, 1 or 10 μM
In short: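 Anaerobically, a colonic material slurry (15% w/v) was inoculated into YCFAC or other suitable media. Compounds were added at 1 or 10 μM final. Samples taken at 0–2880 min were quenched with acetonitrile containing internal standard and analysed by LC/MS.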

[4] = In Vitro Biotransformation and Detection of Monomethyl Fumarate Assay; format: in vitro ADME; settings: FaSSIF with pancreatin pH 6.5, 100 μM compound, 0 h and 2 h, UHPLC-MSMS
Procedure: Stock solution of compound 2 was prepared at 10 mM in DMSO. FaSSIF was made by mixing sodium taurocholate (3.0 mM) Lecithin (0.75 mM), and pancreatin (10 mg/mL) in prepared solution of sodium phosphate monobasic (28.4 mM), sodium hydroxide (8.7 mM), sodium chloride (105.9 mM), pH 6.5. Compound 2, was added to FaSSIF to final concentration of 100 μM. Release of monomethyl fumaric acid (MMF) was monitored via UHPLC-MSMS and comparing the retention time and corresponding fragmentation of released MMF to retention time and fragmentation of a neat solution of MMF that was analyzed separately with the same method described below. Release of MMF was measured at 0 h and 2 h time points. At both time points samples were centrifuged at 14000 rpm for 10 minutes at 4° C. Supernatants were then transferred to HPLC vials and analyzed immediately. The results of this assay are illustrated in FIG. 1.

[5] = male, Sprague Dawley, rat, in vivo, po
Procedure: The amount of compound dosed was normalized to provide approximately equimolar amounts of monomethylfumarate. Approximately 150 μL whole blood samples were collected at 15 and 30 min; and 1, 2, 4, 8, and 24 h post-dosing from the jugular or tail vein. 100 μL of samples were added to K2EDTA tubes pre-filled with 300 μL of 100 mM tiopronin in 100 mM ammonium bicarbonate (pH 9.0). Samples were vortex-mixed for approximately 5 min at ambient temperature in order to trap free fractions of monomethyl fumarate.

AhR = molecular target: T1, AhR (Homo sapiens, UniProt P35869); test: AhR Activation in Caco-2 Cells Through CYP1A1 mRNA Expression; settings: overnight
T1 sequence (P35869 11-848): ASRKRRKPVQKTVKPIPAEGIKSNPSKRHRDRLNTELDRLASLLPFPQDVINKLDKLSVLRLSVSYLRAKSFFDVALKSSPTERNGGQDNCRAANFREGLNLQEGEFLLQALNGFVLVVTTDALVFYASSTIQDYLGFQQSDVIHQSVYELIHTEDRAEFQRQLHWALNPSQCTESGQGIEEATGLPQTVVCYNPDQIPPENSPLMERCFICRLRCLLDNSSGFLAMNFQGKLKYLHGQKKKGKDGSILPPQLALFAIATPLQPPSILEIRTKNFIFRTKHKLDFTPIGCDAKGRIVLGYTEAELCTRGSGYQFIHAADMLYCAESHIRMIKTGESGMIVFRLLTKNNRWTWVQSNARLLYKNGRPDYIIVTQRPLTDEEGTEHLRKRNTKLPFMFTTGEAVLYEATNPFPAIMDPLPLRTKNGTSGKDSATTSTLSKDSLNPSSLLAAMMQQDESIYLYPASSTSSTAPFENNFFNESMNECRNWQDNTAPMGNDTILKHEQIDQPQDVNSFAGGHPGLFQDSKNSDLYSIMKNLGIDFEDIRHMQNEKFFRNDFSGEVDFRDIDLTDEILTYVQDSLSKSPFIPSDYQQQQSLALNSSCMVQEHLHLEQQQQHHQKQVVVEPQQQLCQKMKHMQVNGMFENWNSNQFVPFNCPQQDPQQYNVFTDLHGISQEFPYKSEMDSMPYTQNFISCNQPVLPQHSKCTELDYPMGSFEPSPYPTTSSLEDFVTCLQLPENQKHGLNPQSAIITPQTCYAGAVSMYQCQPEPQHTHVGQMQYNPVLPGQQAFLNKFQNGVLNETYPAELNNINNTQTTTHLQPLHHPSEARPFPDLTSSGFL
Procedure: Caco-2 cells from American Type Culture Collection (ATCC) were plated in a sterile tissue culture treated 96-well plate (ThermoFisher) at 8.0×10^5 cells per well, and grown overnight at 37° C., 5% CO2 in DMEM complete (Gibco) in order to achieve confluence. After the incubation medium was aspirated off of the Caco-2 monolayers, tissues were then washed with 200 μL of warmed PBS solution, and subsequently 190 μL of pre-warmed growth medium was added to each well. Compounds of interest were diluted at a 20× concentration in growth medium containing 2% DMSO, and 10 μL of compound solutions were added to respective wells in triplicate. Compounds where incubated overnight at 37° C., 5% CO2. 2-(1′H-indole-3′-carbonyl)-thiazole-4-carboxylic acid methyl ester (ITE) was used as the positive control for AhR activation at 1 and 100 μM concentrations. At the end of the incubation, medium was aspirated off of the Caco-2 cells, and washed with 100 μL of cold PBS solution. RNA was extracted via the TaqMan™ Gene Expression Cells-to-CT™ Kit (ThermoFisher) according to the manufacturer's protocol. The QuantStudio 6 Flex (Applied Biosciences) was used to analyze mRNA levels of CYP1A1 using GAPDH as the endogenous control. TaqMan™ probe sets for both genes were acquired from ThermoFisher. Samples were run in triplicate and data was analyzed using the QuantStudio software and reported as linear (Table 6) and log 2(ΔΔCT) values. Statistical analysis was performed using a two-tailed t-test comparing CYP1A1 levels in the presence of each individual compound to the vehicle negative control.

IL-8 = test: Neutrophil Chemokine Production Assay: IL-8; format: cell-based; settings: human neutrophils, 12 h
Procedure: (§1) A volume 25 mL of human blood was layered over 15 mL of Histopaque®-1077 and centrifuged at 500 g, R^T, for 30 min with no break applied to the centrifuge. The PBMC band and Histopaque®-1077 layer were removed leaving behind the bottom red layer which was mixed with 40 mL of 1× red blood cell (RBC) lysis buffer (Sigma-Aldrich) was and split into two 50 mL tubes. The volume for both fractions was brought to 50 mL with RBC lysis buffer, mixed by inversion, and then incubated at RT for 10 min. Solutions were centrifuged at 250 g, for 10 min at RT and the supernatant liquids removed. The reddish pellets were re-suspended in 1 mL of RBC lysis buffer and combined. The cell suspension was incubated for 5 min at RT in RBC lysis buffer. After incubation 45 mL of Hanks Balanced Salt Solution with no calcium, magnesium or phenol red (HBSS—) was added, the cell suspension was spun (250 g for 10 min at RT), and supernatant liquids were removed. The white pellet was re-suspended in 1 mL of HBSS—, and cell counts were determined. The neutrophil cell suspension was brought to a concentration of 1.11e6 cells/mL in RPMI complete (Sigma-Aldrich), and 180 μL of cell suspension was transferred to all wells within a sterile 96-well tissue culture treated plate resulting in 2.0×10^5 cells/well. […] After incubation, 10 μL of 2 μg/mL LPS solution in RPMI complete was added to each well except for control wells, which received an additional 10 μL of media. Cells were incubated for 12 h (37° C., 5% CO2), after which plates were centrifuged at 250 g, RT, for 5 min and supernatant liquids were obtained and stored at −80° C. until analyzed via Luminex® Multiplex Assay for various chemokines and cytokines. Three data points were acquired from two different blood donors and averaged.

MIP-1α = test: Neutrophil Chemokine Production Assay: MIP-1α; format: cell-based; settings: human neutrophils, 12 h
Procedure: as §1

MIP-1β = test: Neutrophil Chemokine Production Assay: MIP-1β; format: cell-based; settings: human neutrophils, 12 h
Procedure: as §1

Caco-2 colonocytes = test: Human Caco-2 Barrier Integrity Assay, Study 1; format: cell-based; settings: Caco-2, + cytokines (TNFα, IFNγ, IL-1β), 48 hours
Procedure: Caco-2 colonocytes were maintained at 37° C. and 5% CO2 in Dulbecco's Modified Eagle Medium (DMEM) and supplemented with 10% FBS, 1% NEAA, 1% penicillin-streptomycin. At 70-80% confluency, cells were trypsinized and seeded in 0.4 cm^2 transwell collagen I coated membranes with supplemented DMEM in both apical and basolateral compartments. […] After 48 hours, TEER readings were taken again and viability was measured by CellTiter 96® AQueous One Solution Cell Proliferation Assay (Promega).

naïve CD4+ T cells = test: Human Regulatory T Cell Differentiation Assay; format: cell-based; settings: 6 days; for Treg induction % DMSO: TGF-β; for Cell viability % DMSO: viability dye
Procedure: Peripheral blood mononuclear cells (PBMCs) from whole blood donated by health volunteers were separated by Ficoll-Paque gradient centrifugation and naïve CD4^+ T cells were subsequently isolated using magnet beads (EasySep™ Human Naïve CD4^+ T Cell Isolation Kit, Cambridge, Mass.). For regulatory T cell (Treg) differentiation assay, naïve CD4^+ T cells were cultured (1-10×10^4 cells) in CTS OpTmizer medium for 6 days and stimulated with 5 ng/ml TGF-β, 100 U/ml IL-2, and ImmunoCult™ Human […] T Cell Activator; Stemcell #10990) with/without our Compounds. Cell viability was determined using a viability dye (eBioscience Fixable Viability Dye eFluor 780: ThermoFisher 65-0865-14) at 1:500 dilution. The cells were gated for Treg, defined as Live, CD11c^−, CD14^−, CD19^−, CD8^−, CD4^+, CD3^+, CD25^+, FOXP3^+. Percent (%) Tregs were calculated as percentage of CD4^+, CD25^+, FOXP3^+ cells over total CD4^+ T cells. Statistical analysis was performed with GraphPad Prism Software Using One-Way ANOVA.

Which “Assay 1 (SGF) (% Remaining @ 1 hour)” value [1] does the source give for `CCC(=O)O[C@@H]1[C@@H](OC(=O)CC)[C@H](C)O[C@@H](OC(=O)/C=C/C(=O)OC)[C@@H]1OC(=O)CC` [Compound 2, Methyl ((2S,3R,4R,5S,6S)-6-methyl-3,4,5-tris(propionyloxy)tetrahydro-2H-pyran-2-yl) fumarate] here?
The value was “C (C: >75% of the tested compound remaining)”.

What about the “Assay 2 (SIF) (% @ Remaining 4 hours)” value [2] of the same compound?
Its value is “B (B: 25-75% of the tested compound remaining)”.

What about the “Assay 3 (% Remaining at 24 h)” value [3] of the same compound?
The value was “C (C: >75% of the tested compound remaining)”.

And the “Release of monomethyl fumaric acid (MMF)” value [4]?
Its value is “actively released”.

Which results are given for `COC(=O)/C=C/C(=O)OCCN1C(=O)CCC1=O` [Diroximel Fumarate, diroximel fumarate]?
AUClast [5]: 9381 ng·h/mL; Cmax [5]: 17251 ng/mL; Tmax [5]: 15 min

Which “Average CYP1A1 mRNA levels” value (AhR; Conc. 1.0 μM) does the source give for `COC(=O)c1csc(C(=O)c2c[nH]c3ccccc23)n1` [ITE, 2-(1′H-indole-3′-carbonyl)-thiazole-4-carboxylic acid methyl ester, reference compound] here?
Its value is “+++ (+++ = >10-fold Vehicle)”.

With `CC(O)CCO` (stereo not drawn) [butanediol] as the compound, how does the “Average CYP1A1 mRNA levels” value (AhR; Conc. 500.0 μM) read?
The value was “− (− = <2-fold Vehicle)”.

For `O=C(O[C@@H]1Cc2c(O)cc(O)cc2O[C@@H]1c1cc(O)c(O)c(O)c1)c1cc(O)c(O)c(O)c1` [epigallocatechin gallate], which “% IL-8 (Vehicle + LPS = 100%)” value (IL-8; Conc. 0.1 μM) is on record?
The value was “− (− = >90% Vehicle)”.

And the “% IL-8 (Vehicle + LPS = 100%)” value (IL-8; Conc. 1.0 μM)?
Its value is “− (− = >90% Vehicle)”.

What about the “% MIP-1α (Vehicle + LPS = 100%)” value (MIP-1α; Conc. 0.1 μM) of the same compound?
Its value is “− (− = >90% Vehicle)”.

What about the “% MIP-1α (Vehicle + LPS = 100%)” value (MIP-1α; Conc. 1.0 μM) of the same compound?
The value was “− (− = >90% Vehicle)”.

And the “% MIP-1β (DMSO + LPS = 100%)” value (MIP-1β; Conc. 0.1 μM)?
Its value is “− (− = >90% Vehicle)”.

And the “% MIP-1β (DMSO + LPS = 100%)” value (MIP-1β; Conc. 1.0 μM)?
Its value is “− (− = >90% Vehicle)”.

What about the “Average CYP1A1 mRNA levels” value (AhR; Conc. 0.1 μM) of the same compound?
The value was “− (− = <2-fold Vehicle)”.

And the “Average CYP1A1 mRNA levels” value (AhR; Conc. 1.0 μM)?
Its value is “− (− = <2-fold Vehicle)”.

And the “% Change in TEER from DMSO” value (Caco-2 colonocytes; 100 nM)?
Its value is “− (<125%: −)”.

And the “% Change in TEER from DMSO” value (Caco-2 colonocytes; 1 μM)?
Its value is “− (<125%: −)”.

What about the “Treg induction % DMSO” value (naïve CD4+ T cells; IL-2, 100 nM) of the same compound?
The value was “= (90% > <110%: =)”.

And the “Treg induction % DMSO” value (naïve CD4+ T cells; IL-2, 1 μM)?
The value was “= (90% > <110%: =)”.

And the “Cell viability % DMSO” value (naïve CD4+ T cells; 100 nM)?
Its value is “= (90% > <110%: =)”.

What about the “Cell viability % DMSO” value (naïve CD4+ T cells; 1 μM) of the same compound?
Its value is “= (90% > <110%: =)”.

Which “Average CYP1A1 mRNA levels” value (AhR; Conc. 1000.0 μM) does the source give for `c1ccc2[nH]ccc2c1` [indole] here?
The value was “+ (+ = >2-fold Vehicle)”.

From US20210299079A1, “MONOMETHYL FUMARATE-CARRIER CONJUGATES AND METHODS OF THEIR USE” (Flagship Pioneering Innovations V, Inc., priority 2018, published 2021)
